The record followed here is ChEMBL document CHEMBL1124494, “Synthesis and biological evaluation of S-adenosyl-1,12-diamino-3-thio-9-azadodecane, a multisubstrate adduct inhibitor of spermine synthase” (J Med Chem, 1989).

The experiment addresses T1, Spermidine synthase (Rattus norvegicus, UniProt Q99MI5).
T1 sequence (Q99MI5 whole entry): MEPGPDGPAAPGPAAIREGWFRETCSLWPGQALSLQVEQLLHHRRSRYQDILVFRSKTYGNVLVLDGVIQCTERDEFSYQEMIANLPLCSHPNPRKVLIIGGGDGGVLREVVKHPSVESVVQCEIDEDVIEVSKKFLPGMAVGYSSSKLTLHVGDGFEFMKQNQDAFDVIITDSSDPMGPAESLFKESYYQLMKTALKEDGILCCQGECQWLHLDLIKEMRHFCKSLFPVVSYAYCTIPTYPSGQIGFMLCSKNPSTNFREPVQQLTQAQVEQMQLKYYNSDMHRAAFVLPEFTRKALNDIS
Put plainly: Inhibition of spermidine synthase activity was evaluated. The conditions noted are these: read-out: I50.

Structures are written as SMILES. Where only a bound is given, the exact number is not on record here.

Consider `NCCCNCCCCCC(CCN)SC[C@H]1OC(n2cnc3c(N)ncnc32)[C@H](O)[C@@H]1O` (stereo partly drawn), for which the IC50 is above 13 µM.

Consider `CCCNCCCCCC(CC)SC[C@H]1OC(n2cnc3c(N)ncnc32)[C@H](O)[C@@H]1O` (stereo partly drawn), for which the IC50 was above 500 µM.

Turning to `CCCCCC(CC)SC[C@H]1OC(n2cnc3c(N)ncnc32)[C@H](O)[C@@H]1O` (stereo partly drawn), the IC50 is above 500 µM.
